Results published in patent US20250129055A1, “GLUCOSIDE DERIVATIVE, AND PREPARATION METHOD THEREFOR AND APPLICATION THEREOF” (BEIJING INCREASE INNOVATIVE DRUG CO., LTD., priority 2020, published 2025).
Read-outs that look alike come from different tables or passages of the source.

Key:
[1] = test system: normal ICR mice; assay: Blood glucose level of normal mice after oral administration of glucose; format: in vivo; settings: for Blood glucose 0 min: 0 min (fasting, 1 h after dosing); for Blood glucose 30 min: 30 min after glucose 2.0 g/kg; for Blood glucose 60 min: 60 min after glucose 2.0 g/kg; for Blood glucose 120 min: 120 min after glucose 2.0 g/kg; for AUC of blood glucose: oral glucose 2.0 g/kg; for Reduction of the area under the curve (AUC) of blood glucose: vs. normal control group
Description: Test Example 2 Evaluation of the in vivo activity of the compounds of the present invention: the effect on the blood glucose level of normal mice after oral administration of glucose
ICR mice (male, 18-20 g), purchased from Beijing Vital River Laboratories Co., Ltd., were fed adaptively for 4 days, and randomly divided into 4 groups, namely normal control group, positive control group, and two groups of test compounds, with 8 mice in each group.
The aforementioned stock solutions were diluted to appropriate concentrations with double distilled water.
The mice were fasted overnight. […] After 1 h, blood was collected at 0 min (fasting), and then mice in each group were administered with glucose (2.0 g/kg) solution by gavage. Blood was collected at 30 min, 60 min, and 120 min after glucose administration. The blood glucose level was measured using glucose oxidase-peroxidase method, and the area under the blood glucose curve was calculated.
The data were expressed as mean±SD. The comparison between multiple groups was performed by one-way analysis of variance, and the comparison between two groups was performed by Dunnett's t test. Statistical graphing was performed using Graphpad Prism software.

[2] = target: SGLT2 (Homo sapiens (Human), UniProt P31639); assay: In vitro SGLT2 inhibitory activity: 1-NBDG uptake by CHO-SGLT2 cells; format: cell-based; settings: for inhibition at 10 pM: compound concentration 1 × 10^−11 mol/L; for inhibition at 1 pM: compound concentration 1 × 10^−12 mol/L; for inhibition at 0.005 µM: compound concentration 5 × 10^−9 mol/L; for inhibition at 0.0005 µM: compound concentration 5 × 10^−10 mol/L; for inhibition at 50 pM: compound concentration 5 × 10^−11 mol/L
Description: The effect of the compounds on SGLT2-mediated glucose uptake was investigated by establishing an SGLT2 overexpression cell model and using the fluorescent glucose (2-deoxy-1-[(7-nitro-2,1,3-benzoxadiazol-4-yl)amino]-D-glucose, 1-NBDG) tracer method to screen out candidate compounds with SGLT2 inhibitory activity.
The humanized SGLT2 overexpression cells (CHO-SGLT2) constructed from Chinese hamster ovary (CHO) cells were cultured in 1640 medium (Gibco) containing 10% fetal bovine serum (Gibco, 10270), subcultured at a ratio of 1:3, and replaced with new culture medium 3 times every week. Fluorescence detection cell culture plates and other culture flasks were purchased from Corning Company. […] Appropriate amounts of all compounds were weighed, prepared into 100 mM stock solutions with DMSO, and stored at 4° C. in the dark.
Before the 1-NBDG uptake test, CHO-SGLT2 cells were digested and seeded in a 96-well cell culture plate with a cell number of 40,000/well. After the cells were cultured for 48 h, the medium was discarded, and 100 μl of choline buffer was added to each well. After the cells were starved at 37° C. for 30 min, the choline buffer was discarded and 100 μl of the newly prepared Na^+ sodium buffer containing […] 1-NBDG and the test compounds (Compound) was added. The solvent DMSO was used as the negative control (Control) for the test compounds.
The Na^+ sodium buffer without 1-NBDG was used as the blank control (Blank). After 1 h of culture, the incubation solution was discarded. The cells were washed with choline buffer solution 3 times, and then 50 μl of neutral lysate was added to each well to lyse the cells on ice for 10 min. The fluorescence value of each well was detected using a multi-functional microplate reader at […].
At least 3 experimental replicates were set for each compound at indicated concentrations, and the data were expressed as mean±SEM. Uptake amount of 1-NBDG by cells=fluorescence value1-NBDG-fluorescence valueBlank. Inhibition rate on uptake amount of SGLT2 glucose (%)=(uptake amountcontrol−uptake amountcompound)/uptake amountcontrol×100%. Concentration-inhibition rate curves were plotted using Graphpad Prism software, and IC50 values were calculated accordingly.

[3] = test system: mice; settings: for Death rate (%): 7 days
Description: Test Example 5 Research on Safety of the Compounds of the Present Invention
The compounds of the present invention were subjected to the following acute toxicity studies in mice.
The symptoms of toxicity reaction and death time were recorded.
On the day before administration, the animals were fasted but provided with water for 17 h. Each test drug group was administered with the corresponding test drug once by gavage, and the blank control group was administered with the same dose of vehicle once by gavage.

[4] = read-out: Inhibition rate of compounds on SGLT2 (%)

SGLT2, sequence (P31639 whole entry): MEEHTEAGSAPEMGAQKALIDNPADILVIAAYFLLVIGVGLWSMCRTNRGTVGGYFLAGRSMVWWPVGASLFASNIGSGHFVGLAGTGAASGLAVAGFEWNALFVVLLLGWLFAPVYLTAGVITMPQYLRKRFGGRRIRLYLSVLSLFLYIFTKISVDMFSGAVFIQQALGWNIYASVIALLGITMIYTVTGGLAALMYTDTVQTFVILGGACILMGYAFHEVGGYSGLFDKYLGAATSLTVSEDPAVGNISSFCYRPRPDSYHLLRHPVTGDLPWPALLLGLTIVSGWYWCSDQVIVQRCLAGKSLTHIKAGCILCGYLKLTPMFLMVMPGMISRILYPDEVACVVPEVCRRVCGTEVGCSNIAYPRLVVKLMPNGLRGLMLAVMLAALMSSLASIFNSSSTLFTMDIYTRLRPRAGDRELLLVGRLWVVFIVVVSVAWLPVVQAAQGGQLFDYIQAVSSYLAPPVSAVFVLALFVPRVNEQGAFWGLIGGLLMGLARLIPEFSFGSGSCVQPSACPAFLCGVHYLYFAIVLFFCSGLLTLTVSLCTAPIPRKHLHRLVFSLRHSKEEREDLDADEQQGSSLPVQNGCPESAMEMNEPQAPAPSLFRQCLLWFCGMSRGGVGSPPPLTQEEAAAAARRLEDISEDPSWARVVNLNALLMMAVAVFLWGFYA

CS[C@H]1O[C@@H](c2ccc(C)c(Cc3ccc4c(c3)OCCO4)c2)[C@H](O)[C@@H](O)[C@@H]1O (stereo in doubt) [Compound 2, 2-[3-(2,3-dihydro-1,4-benzodioxin-6-ylmethyl)-4-methylphenyl]-6-(methylthio)oxane-3,4,5-triol]
Blood glucose 0 min ([1]; 2 mg/kg by gavage): 75.9 ± 6.7 mg/dL
Blood glucose 30 min ([1]; 2 mg/kg by gavage): 207.8 ± 13.6 mg/dL
Blood glucose 60 min ([1]; 2 mg/kg by gavage): 119.3 ± 12.5 mg/dL
Blood glucose 120 min ([1]; 2 mg/kg by gavage): 73.0 ± 11.4 mg/dL
AUC of blood glucose ([1]; 2 mg/kg by gavage): 248.8 ± 18.0 mg·h/dL
Reduction of the area under the curve (AUC) of blood glucose ([1]; 2 mg/kg): 37.4%
Blood glucose 0 min ([1]; 4 mg/kg by gavage): 63.6 ± 8.3 mg/dL
Blood glucose 30 min ([1]; 4 mg/kg by gavage): 189.5 ± 14.3 mg/dL
Blood glucose 60 min ([1]; 4 mg/kg by gavage): 103.2 ± 5.1 mg/dL
Blood glucose 120 min ([1]; 4 mg/kg by gavage): 78.2 ± 13.9 mg/dL
AUC of blood glucose ([1]; 4 mg/kg by gavage): 227.1 ± 13.1 mg·h/dL
Reduction of the area under the curve (AUC) of blood glucose ([1]; 4 mg/kg): 42.9%
IC50 ([2]; CHO-SGLT2 cells, 1-NBDG uptake, read-out: IC50 inhibiting SGLT2): 0.105 nM
inhibition at 1 µM ([2]; compound concentration 1 × 10^−6 mol/L, read-out: Inhibition rate of compounds on SGLT2 (%)): 107 ± 1.1%
inhibition at 0.0001 µM ([2]; compound concentration 1 × 10^−10 mol/L, read-out: Inhibition rate of compounds on SGLT2 (%)): 40.6 ± 1%
inhibition at 10 pM [2, 4]: 0%
inhibition at 1 pM [2, 4]: 0.3 ± 6.4%
inhibition at 0.5 µM ([2]; compound concentration 5 × 10^−7 mol/L, read-out: Inhibition rate of compounds on SGLT2 (%)): 81.6 ± 2.5%
inhibition at 0.005 µM [2, 4]: 80.7 ± 3%
inhibition at 0.0005 µM [2, 4]: 61.9 ± 3.6%
inhibition at 50 pM [2, 4]: 39.2 ± 2.1%
Deaths D 1 ([3]; female, mouse, in vivo, 3000 mg/kg, 1 day): 0
Deaths D 2 ([3]; female, mouse, in vivo, 3000 mg/kg, 2 day): 0
Deaths D 3 ([3]; female, mouse, in vivo, 3000 mg/kg, 3 day): 0
Deaths D 4 ([3]; female, mouse, in vivo, 3000 mg/kg, 4 day): 0
Deaths D 5 ([3]; female, mouse, in vivo, 3000 mg/kg, 5 day): 0
Deaths D 6 ([3]; female, mouse, in vivo, 3000 mg/kg, 6 day): 0
Deaths D 7 ([3]; female, mouse, in vivo, 3000 mg/kg, 7 day): 0
Death rate (%) ([3]; female, mouse, in vivo, 3000 mg/kg): 0%
Deaths D 1 ([3]; male, mouse, in vivo, 3000 mg/kg, 1 day): 0
Deaths D 2 ([3]; male, mouse, in vivo, 3000 mg/kg, 2 day): 0
Deaths D 3 ([3]; male, mouse, in vivo, 3000 mg/kg, 3 day): 0
Deaths D 4 ([3]; male, mouse, in vivo, 3000 mg/kg, 4 day): 1
Deaths D 5 ([3]; male, mouse, in vivo, 3000 mg/kg, 5 day): 0
Deaths D 6 ([3]; male, mouse, in vivo, 3000 mg/kg, 6 day): 1
Deaths D 7 ([3]; male, mouse, in vivo, 3000 mg/kg, 7 day): 0
Death rate (%) ([3]; male, mouse, in vivo, 3000 mg/kg): 40%

CCOc1ccc(Cc2cc([C@@H]3O[C@H](CO)[C@@H](O)[C@H](O)[C@H]3O)ccc2Cl)cc1 [Dapagliflozin, reference compound]
Blood glucose 0 min ([1]; 2 mg/kg by gavage): 71.8 ± 6.6 mg/dL
Blood glucose 30 min ([1]; 2 mg/kg by gavage): 213.2 ± 26.6 mg/dL
Blood glucose 60 min ([1]; 2 mg/kg by gavage): 122.2 ± 16.1 mg/dL
Blood glucose 120 min ([1]; 2 mg/kg by gavage): 83.0 ± 13.5 mg/dL
AUC of blood glucose ([1]; 2 mg/kg by gavage): 257.7 ± 24.0 mg·h/dL
Reduction of the area under the curve (AUC) of blood glucose ([1]; 2 mg/kg): 35.2%
inhibition at 10 µM ([2]; compound concentration 1 × 10^−5 mol/L, read-out: Inhibition rate of compounds on SGLT2 (%)): 106 ± 4.2%
inhibition at 10 pM [2, 4]: 1.9 ± 9.2%
inhibition at 1 pM [2, 4]: 6.8 ± 5.9%
inhibition at 0.05 µM ([2]; compound concentration 5 × 10^−8 mol/L, read-out: Inhibition rate of compounds on SGLT2 (%)): 84.3 ± 4%
inhibition at 0.005 µM [2, 4]: 84.8 ± 3.2%
inhibition at 0.0005 µM [2, 4]: 60.1 ± 2%
inhibition at 50 pM [2, 4]: 42 ± 2.8%
Death rate (%) ([3]; female, 3000 mg/kg once by gavage): 0%
Deaths D 1 ([3]; female, 3000 mg/kg once by gavage, day 1): 0
Deaths D 2 ([3]; female, 3000 mg/kg once by gavage, day 2): 0
Deaths D 3 ([3]; female, 3000 mg/kg once by gavage, day 3): 0
Deaths D 4 ([3]; female, 3000 mg/kg once by gavage, day 4): 0
Deaths D 5 ([3]; female, 3000 mg/kg once by gavage, day 5): 0
Deaths D 6 ([3]; female, 3000 mg/kg once by gavage, day 6): 0
Deaths D 7 ([3]; female, 3000 mg/kg once by gavage, day 7): 0
Death rate (%) ([3]; male, 3000 mg/kg once by gavage): 80%
Deaths D 1 ([3]; male, 3000 mg/kg once by gavage, day 1): 0
Deaths D 2 ([3]; male, 3000 mg/kg once by gavage, day 2): 0
Deaths D 3 ([3]; male, 3000 mg/kg once by gavage, day 3): 1
Deaths D 4 ([3]; male, 3000 mg/kg once by gavage, day 4): 1
Deaths D 5 ([3]; male, 3000 mg/kg once by gavage, day 5): 0
Deaths D 6 ([3]; male, 3000 mg/kg once by gavage, day 6): 2
Deaths D 7 ([3]; male, 3000 mg/kg once by gavage, day 7): 0
